According to patent US20080033026A1, “Antimicrobial compositions, methods and systems” (priority 2006, published 2008):

Key:
[1] = tested on: Escherichia coli 0157:H7 (ATCC 43895); assay: Time-kill determination; assay type: cell-based
Experimental: (§1) The assessment of efficacy of 9-decenoic acid against a spectrum of microorganisms was determined using the American Society for Testing and Materials (ASTM) procedure entitled “Standard Test Method for the Assessment of Microbiocidal Activity of Test Materials Using a Time-Kill Procedure,” October 1998. This procedure incorporates the recommendations described in the “Manual of Clinical Microbiology,” 5th ed., edited by A. B. Balows et al., ASM, Washington, and is directed by the Federal Register, June 1994.
(§2) Challenge organisms were prepared as follows. Cultures of the following organisms were obtained: Staphylococcus aureus (ATCC 6538), Pseudomonas aeruginosa (ATCC 15442), Staphylococcus epidermidis (ATCC 12228), Klebsiella pneumoniae (ATCC 4352), Escherichia coli 0157:H7 (ATCC 43895) and Candida albicans (ATCC 10231). The stock cultures were transferred to sterile tubes and sterile tryptic soy broth (TSB) was added to the cultures. The mixture was incubated for 18-24 hours at 37° C. (±2° C.). A portion of this culture was then transferred onto TSA plates and incubated for 18-24 hours at 37° C. (±2° C.). The plates were removed from incubation and the bacterial growth was washed from the agar surface using Butterfield's Phosphate Buffered Dilution Water (PBDW).
(§3) The bacterial suspension was adjusted to contain approximately 10^8 Colony Forming Units (CFU) per ml with PBDW. The concentration was adjusted to an optical density (OD) of 0.4-0.5 (versus a PBDW blank) at 620 nm in a UV-Vis spectrophotometer, and this optical density gave approximately 10^8 colony forming units per milliliter (cfu/ml). The standardized suspension was stored under appropriate conditions until it was used as the challenge inoculum.
(§4) Concentrated 9-decenoic acid (97%) was diluted in filter sterilized isopropanol to yield a 25,000 ppm stock solution. Subsequent dilutions to the 9-decenoic acid stock solutions were made with sterile Deionized Water (DI) to achieve concentrations of 0.1%, 0.05%, 0.01% and 0.001%. The pH was determined for each dilution; pH values ranged from 4.4-4.1. […] In addition, 9-decenoic acid stock solution was combined with Triclosan™ (obtained from Ciba Specialty Chemical Corporation, under the tradename Irgasan DP 300™) in various ratios, as indicated in Table 8. The pH of the combined solution was 7.
(§5) Compliant with the ASTM procedure cited, for each challenge microorganism a 9.9 ml aliquot of the prepared 9-decenoic acid suspension was added to a sterile tube. A 0.1 ml aliquot of the standardized inoculum was added to the 9-decenoic acid solution representing the start of the test exposure. The inoculated 9-decenoic acid solution was immediately mixed thoroughly. The inoculated suspension was held at room temperature for 0.5, 2, 5, 7 and 10-minute exposure times for tests run at pH level of approximately 4. The pH 7 tests were held at room temperature for 0.5 and 2 minutes.
(§6) At each exposure sample time, a 1.0 ml aliquot of the inoculated 9-decenoic acid suspension was transferred to 9.0 ml of D/E Neutralizing Broth. Additional ten-fold serial dilutions were made in PBDW and plated in duplicate on TSA. All plates were incubated for 48 hours at 37° C. (±2° C.) and visually examined for growth. The plates were enumerated, recorded and log kill determined for each time point.
(§7) The following study controls were conducted: culture purity, neutralizer sterility, initial suspension population, test population, neutralization verification and a negative control using isopropanol. Culture purity was verified by performing a streak plate for isolated colonies of each culture used. All cultures were determined to be pure based on consistent colony morphology typical for the test organism. The neutralizer sterility was confirmed by no growth in an incubated sample.
(§8) The populations of the initial and test culture were determined by serial dilution, plating and enumerating after incubation. The initial suspension were determined to be ≧10^4 CFU/ml. […]

[2] = tested on: Staphylococcus aureus (ATCC 6538); assay: Time-kill determination; assay type: cell-based
Experimental: as §1, §2, §3, §4, §5, §6, §7, §8

[3] = 0.01% 9-decenoic acid, pH 4.4, exposure 0.5 min
[4] = 0.01% 9-decenoic acid, pH 4.4, exposure 2 min
[5] = 0.01% 9-decenoic acid, pH 4.4, exposure 5 min
[6] = 0.01% 9-decenoic acid, pH 4.4, exposure 7 min
[7] = 0.01% 9-decenoic acid, pH 4.4, exposure 10 min
[8] = 0.05% 9-decenoic acid, pH 4.1, exposure 0.5 min
[9] = 0.05% 9-decenoic acid, pH 4.1, exposure 2 min
[10] = 0.05% 9-decenoic acid, pH 4.1, exposure 5 min
[11] = 0.05% 9-decenoic acid, pH 4.1, exposure 7 min
[12] = 0.05% 9-decenoic acid, pH 4.1, exposure 10 min
[13] = 0.05% 9-decenoic acid, pH 7, exposure 0.5 min
[14] = 0.05% 9-decenoic acid, pH 7, exposure 2 min
[15] = 0.1% 9-decenoic acid, pH 4.1, exposure 0.5 min
[16] = 0.1% 9-decenoic acid, pH 4.1, exposure 2 min
[17] = 0.1% 9-decenoic acid, pH 4.1, exposure 5 min
[18] = 0.1% 9-decenoic acid, pH 4.1, exposure 7 min
[19] = 0.1% 9-decenoic acid, pH 4.1, exposure 10 min
[20] = 0.75% 9-decenoic acid, pH 7, exposure 0.5 min
[21] = 0.75% 9-decenoic acid, pH 7, exposure 2 min
[22] = 1% 9-decenoic acid, pH 7, exposure 0.5 min
[23] = 1% 9-decenoic acid, pH 7, exposure 2 min

Q: `C=CCCCCCCCC(=O)O` [9-decenoic acid] was tested. Which Log reduction [1, 3] did it give?
A: 1.3 log

Q: And the Log reduction [1, 4]?
A: 1.6 log

Q: And the Log reduction [1, 5]?
A: 2.2 log

Q: What about the Log reduction [1, 6] of the same compound?
A: 1.8 log

Q: What about the Log reduction [1, 7] of the same compound?
A: 2.7 log

Q: And the Log reduction [1, 8]?
A: >6.2 log

Q: And the Log reduction [1, 9]?
A: >6.2 log

Q: And the Log reduction [1, 10]?
A: >6.2 log

Q: What about the Log reduction [1, 11] of the same compound?
A: >6.2 log

Q: What about the Log reduction [1, 12] of the same compound?
A: >6.2 log

Q: And the Log reduction [1, 13]?
A: 0 log

Q: And the Log reduction [1, 14]?
A: 0 log

Q: What about the Log reduction [1, 15] of the same compound?
A: >6.2 log

Q: And the Log reduction [1, 16]?
A: >6.2 log

Q: What about the Log reduction [1, 17] of the same compound?
A: >6.2 log

Q: And the Log reduction [1, 18]?
A: >6.2 log

Q: What about the Log reduction [1, 19] of the same compound?
A: >6.2 log

Q: And the “Enhancement of disinfectant activity of marginally-effective concentrations of Triclosan” value ([1]; 0.5% 9-decenoic acid added to Triclosan, pH 7)?
A: 1-2 log reductions

Q: What about the Log reduction ([1]; 0.5% 9-decenoic acid, pH 7, exposure 0.5 min) of the same compound?
A: 0 log

Q: What about the Log reduction ([1]; 0.5% 9-decenoic acid, pH 7, exposure 2 min) of the same compound?
A: 0 log

Q: What about the Log reduction [1, 20] of the same compound?
A: 0.83 log

Q: What about the Log reduction [1, 21] of the same compound?
A: >4.2 log

Q: And the Log reduction [1, 22]?
A: >4.2 log

Q: And the Log reduction [1, 23]?
A: >4.2 log

Q: What about the Log reduction [2, 3] of the same compound?
A: 1.4 log

Q: What about the Log reduction [2, 4] of the same compound?
A: 4.6 log

Q: And the Log reduction [2, 5]?
A: >6.5 log

Q: And the Log reduction [2, 6]?
A: >6.5 log

Q: And the Log reduction [2, 7]?
A: >6.5 log

Q: And the Log reduction [2, 8]?
A: >6.5 log

Q: And the Log reduction [2, 9]?
A: >6.5 log

Q: What about the Log reduction [2, 10] of the same compound?
A: >6.5 log

Q: What about the Log reduction [2, 11] of the same compound?
A: >6.5 log

Q: What about the Log reduction [2, 12] of the same compound?
A: >6.5 log

Q: What about the Log reduction [2, 13] of the same compound?
A: 0 log

Q: What about the Log reduction [2, 14] of the same compound?
A: 0 log

Q: What about the Log reduction [2, 15] of the same compound?
A: >6.5 log

Q: And the Log reduction [2, 16]?
A: >6.5 log

Q: What about the Log reduction [2, 17] of the same compound?
A: >6.5 log

Q: And the Log reduction [2, 18]?
A: >6.5 log

Q: And the Log reduction [2, 19]?
A: >6.5 log

Q: And the Log reduction [2, 20]?
A: 0.67 log

Q: And the Log reduction [2, 21]?
A: 1 log

Q: What about the Log reduction [2, 22] of the same compound?
A: 2.1 log

Q: And the Log reduction [2, 23]?
A: 3.2 log
